{"source": "paper PMC9304929", "about": "“The Cholesterol-Binding Sequence in Monomeric C-Reactive Protein Binds to the SARS-CoV-2 Spike Receptor-Binding Domain and Blocks Interaction With Angiotensin-Converting Enzyme 2” (Frontiers in Immunology, 2022)", "key": {"[1]": {"tested_on": "binding of mCRP to the spike RBD", "assay": "Peptide competition assay (ELISA) of mCRP binding to spike RBD", "set-up": "species or system SARS-CoV-2", "settings": "spike RBD-coated wells (2 μg/mL), mCRP at half-saturation concentration with synthetic peptide, mAb 3H12, n = 3"}, "SARS-CoV-2 spike RBD [2]": {"target": "SARS-CoV-2 spike RBD", "assay": "Spike RBD-mCRP binding ELISA", "settings": "for Kd: ELISA, spike RBD-immobilized microtiter wells, detection with mCRP-specific mAb 3H12, n = 3, mean ± S.E.M.", "procedure": "The interactions of the spike-RBD with mCRP or CRP were also examined by enzyme-linked immunosorbent assay (ELISA) using mCRP/CRP-specific mAbs. Briefly, 100 μL of spike-RBD (1μg/mL) in Tris-buffered saline (TBS; 10 mM Tris, 140 mM NaCl, pH 7.4) was added per well to coat in 96-well microplates overnight at 4°C. The wells were then washed three times with TBS containing 0.02% Tween-20 for 5 min and blocked with 1% bovine serum albumin (BSA) in TBS for 1 h at 37°C. Next, mCRP was added and the plates were incubated for 1 h at 37°C. The color was developed by adding tetramethyl benzidine (TMB) to the wells and the color development was stopped with 1 M H2SO4."}, "[3]": {"tested_on": "binding of the spike RBD to ACE2", "assay": "SPR competition of spike RBD binding to ACE2", "set-up": "species or system human", "settings": "fixed spike RBD concentration, different concentrations of mCRP", "procedure": "(§1) Surface plasmon resonance (SPR) binding assays were performed using Biacore 8K instrument (Cytiva Life Sciences, Marlborough, MA, USA) in HEPES buffer containing 50 mM HEPES (pH 7.4), 150 mM NaCl, and 0.05% Tween-20 at 25°C. Spike-RBD was diluted to a concentration of 20 μg/mL with 10 mM sodium acetate (pH 5.0) and immobilized on a CM5 sensor chip (Cytiva Life Sciences, Marlborough, MA, USA). The mCRP samples were passed over the sensor chip at a flow rate of 30 μL/min with a concentration gradient from 3.125 nM to 100 nM. The association time was 180 s. A dissociation process was performed for 200 s at a flow rate of 30 μL/min. The dissociation constant (Kd) values were calculated by fitting result curves (subtracted from the control flow value) to a 1:1 Langmuir binding model with Biacore 8K evaluation software.\nHaving confirmed that mCRP can bind to the spike RBD, we further questioned whether mCRP can compete for the binding of the spike RBD to ACE2. […] First, in the spike RBD binding assay with ACE2, the spike RBD concentration was fixed and different concentrations of mCRP were added to test whether mCRP could inhibit the binding of the spike RBD to ACE2."}, "SARS-CoV-2 spike RBD [4]": {"tested_on": "SARS-CoV-2 spike RBD", "assay": "Surface plasmon resonance (SPR) binding assay, spike RBD on CM5 chip", "procedure": "as §1"}, "[5]": {"settings": "cited from earlier work"}, "[6]": {"tested_on": "spike RBD binding to cell surface ACE2 (A549 ACE2+/+ cells)", "assay": "Inhibition assay of spike-ACE2 interaction in cells (flow cytometry)", "assay_type": "cell-based, human", "settings": "spike RBD 140 nM with ACE2+/+ cells, compound 4°C 30 min, n = 3"}, "[7]": {"tested_on": "binding of the spike RBD to mCRP", "set-up": "species or system SARS-CoV-2"}, "SARS-CoV-2 pseudovirus": {"tested_on": "SARS-CoV-2 pseudovirus", "settings": "50 μM, preliminary results, data not shown"}, "[8]": {"tested_on": "immortalized bone marrow-derived macrophages (iBMDM)", "assay": "Cytokine release from macrophages stimulated with CBS", "assay_type": "cell-based", "settings": "iBMDM stimulated with different concentrations of CBS, LPS positive control, n = 3", "procedure": "To compare the inhibitory ability of the CBS peptide, different concentrations of the CBS peptide were added to the cell medium and incubated at 4°C for 30 min. After washing, the mixture was incubated for another 30 min with anti-Flag antibody, followed by incubation with a secondary antibody conjugated to Alexa Fluor 488. The inhibitory activity of the CBS peptide and positive control (lomefloxacin) was compared using flow cytometry with Alexa Fluor 488-conjugated spike RBD and phycoerythrin (PE)-conjugated ACE2. […] At the same time, we stimulated macrophages with the CBS peptide and detected the release of pro-inflammatory cytokines TNF-α and IL-6 to verify whether the CBS peptide itself is immunogenic."}}}
{"compound": "amino acids 35−42 (VCLHFYTE)", "values": [{"measurement": "inhibition of the binding of mCRP to the spike RBD (peptide competition assay)", "setting": "[1]", "value": "still inhibited"}]}
{"compound": "amino acids 39−47 (FYTELSSTR)", "values": [{"measurement": "inhibition of the binding of mCRP to the spike RBD (peptide competition assay)", "setting": "[1]", "value": "lost the ability to inhibit"}]}
{"compound": "r-mCRP", "values": [{"measurement": "Kd", "setting": "SARS-CoV-2 spike RBD [2]", "value": "24.4 ± 6.48", "unit": "nM"}]}
{"compound": "u-mCRP", "values": [{"measurement": "Kd", "setting": "SARS-CoV-2 spike RBD [2]", "value": "44.9 ± 6.27", "unit": "nM"}]}
{"compound": "mCRP", "values": [{"measurement": "inhibition of the binding of the spike RBD to ACE2 (SPR)", "setting": "[3]", "value": "significantly inhibited"}, {"measurement": "binding to the spike RBD (SPR)", "setting": "SARS-CoV-2 spike RBD [4]; analyte 3.125-100 nM in fluid phase, spike RBD on CM5 chip, HEPES pH 7.4, 25°C", "value": "high affinity"}, {"measurement": "half-life of blood-borne mCRP", "setting": "[5]", "value": "rather short"}]}
{"compound": "ACE2", "values": [{"measurement": "binding of spike RBD to ACE2 (SPR)", "setting": "SARS-CoV-2 spike RBD [4]; check of biological activity of the spike RBD protein", "value": "high affinity"}]}
{"compound": "CCn1cc(C(=O)O)c(=O)c2cc(F)c(N3CCNC(C)C3)c(F)c21", "note": "(stereo not shown) [lomefloxacin, Lomefloxacin, reference compound]", "values": [{"measurement": "inhibition of the binding of the spike RBD to the cell surface ACE2", "setting": "[6]", "value": "almost completely inhibited"}]}
{"compound": "amino acids 41−47 (TELSSTR; UniProt P02741 59-65, looked up, fragment)", "values": [{"measurement": "inhibition of the binding of mCRP to the spike RBD (peptide competition assay)", "setting": "[1]", "value": "lost the ability to inhibit"}]}
{"compound": "CBS (VCLHFYTELSSTR)", "values": [{"measurement": "inhibition of the binding of the spike RBD to mCRP (SPR)", "setting": "[7]", "value": "almost completely inhibited"}, {"measurement": "inhibition of the binding of the spike RBD to the cell surface ACE2", "setting": "[6]", "value": "inhibit the binding of the spike RBD to the cell surface ACE2 in a concentration-dependent manner"}, {"measurement": "inhibition of the invasion of SARS-CoV-2 pseudovirus into Caco-2 cells", "setting": "SARS-CoV-2 pseudovirus", "value": "partially inhibit"}, {"measurement": "inhibition of the binding of mCRP to the spike RBD (peptide competition assay)", "setting": "[1]", "value": "competitively inhibited"}, {"measurement": "release of pro-inflammatory cytokines TNF-α and IL-6", "setting": "[8]", "value": "did not induce the release of cytokines"}]}
{"compound": "pCRP", "values": [{"measurement": "binding to the spike RBD (ELISA)", "setting": "SARS-CoV-2 spike RBD [2]; spike RBD-immobilized wells, detection with pCRP-specific mAb 8D8, n = 3", "value": "did not bind"}]}
